Measured values reported in patent US11179450B2, “Long chain antigen containing interepitope sequence that promotes antigen presentation to T cells” (MIE UNIVERSITY, priority 2013, dated 2021).

Legend:
[1] = test system: F4/80+ cells (macrophages); experiment: Uptake of FAM-labeled long chain peptide antigens in individual animals, regional lymph node macrophages; format: in vivo, BALB/c mice; conditions: FIG. 9, complexed with CHP, subcutaneous, 16 hours after administration
Experimental: The same FAM-labeled long chain peptide antigens as those in FIG. 8 were complexed with CHP and administered subcutaneously to mice. After 16 hours, cells were collected from a regional lymph node of the administration site, and the fluorescence uptakes into dendritic cells and mouse macrophages were measured by flow cytometry with the P4 fraction in the figure being deemed to correspond to the dendritic cells and the P5 fraction in the figure being deemed to correspond to the macrophages.
A test of uptake of long chain peptide antigens by antigen-presenting cells in individual animals was performed as follows. Each long chain peptide was fluorescence-labeled, complexed with a CHP nanogel, administered subcutaneously to BALB/c mice. 16 hours after administration, cells were collected from lymph nodes and after staining with the anti-CD11c antibody and the anti-F4/80 antibody, the uptake of the fluorescence-labeled long chain peptide antigens by CD11c^+ cells (dendritic cells) and F4/80^+ cells (macrophages) was analyzed by flow cytometry.

[2] = test system: mouse fibrosarcoma cell line CMS5a; experiment: Mouse tumor growth test; format: in vivo, BALB/c mice; conditions: FIG. 2; single dose of vaccine with CpG oligo DNA before subcutaneous CMS5a implantation (prophylactic condition); Student's t test
Excerpt: Long chain peptide antigens MEN, all containing three types of mouse CD8+ T cell epitope sequences (MA p265 (Sequence No. 27), NY p81 (Sequence No. 29), and mERK2 9m (Sequence No. 28)), were synthesized. The interepitope sequences between the respective epitopes were respectively six consecutive tyrosines (Y6) (Sequence No. 1), six consecutive glycines (G6) (Sequence No. 2), or six consecutive prolines (P6) (Sequence No. 3). Each long chain peptide antigen was complexed with CHP and administered in a single dose as a vaccine to a mouse. As a control, a short chain peptide vaccine, constituted of just the mERK2 9m peptide, was mixed with Freund's incomplete adjuvant and administered. In the process of administration, CpG oligo DNA was coadministered as an adjuvant. On the day after administration, a mouse fibrosarcoma cell line CMS5a, expressing mERK2 as a tumor antigen and presenting the CD8+ T cell epitope mERK2 9m derived from the same antigen, was implanted subcutaneously and its growth was recorded over time.
A subcloned CMS5a cell line, obtained from a CMS5 cell line isolated from fibrosarcoma induced by administering 3-methylcholanthrene to a BALB/c mouse, expresses mutant ERK2 (mERK2) as a tumor antigen and presents a CD8^+ T cell epitope derived from the mERK2. The CMS5a cell line cultured in a T75 flask (Nunc) was detached using PBS containing 0.5% trypsin and collected in RPMI1640 medium containing 10% FBS. After centrifuging (400×g, 5 minutes, 4° C.), the supernatant was removed, and the cells were rinsed twice with RPMI1640 medium, thereafter suspended in RPMI1640 medium at a concentration of 1×10^6 cells/100 μL, and implanted subcutaneously in BALB/c mice at a dose of 100 μL/individual. The CHP/long chain peptide complexes and the adjuvant were administered 7 days before tumor implantation (prophylactic condition). After tumor implantation, the length and breadth of the tumor were measured and the product thereof was recorded as tumor size. The data in the tumor growth test were compared by Student's t test using Microsoft® Excel® (Microsoft Corporation).

[3] = test system: F4/80+ cells (macrophages); experiment: In vitro uptake of FAM-labeled long chain peptide antigens by antigen-presenting cells (macrophages); format: cell-based; conditions: FIG. 8, complexed with CHP, 10 μg/mL, mouse spleen cells, 60 minutes, in comparison to G6 and P6
Excerpt: Long chain peptide antigens MEN, all containing three types of mouse CD8+ T cell epitope sequences (MA p265 (Sequence No. 27), NY p81 (Sequence No. 29), and mERK2 9m (Sequence No. 28)), were synthesized. The interepitope sequences between the respective epitopes were respectively six consecutive tyrosines (Y6), six consecutive glycines (G6), or six consecutive prolines (P6) (Sequence Nos. 1-3). Each long chain peptide antigen, labeled with the fluorescent dye FAM, was complexed with CHP and administered in vitro to mouse dendritic cells and mouse macrophages. After 60 minutes, the fluorescence uptakes into the respective cells were measured by flow cytometry with the P5 fraction in the figure being deemed to correspond to the dendritic cells and the P6 fraction in the figure being deemed to correspond to the macrophages.
In vitro uptake of the long chain peptide antigens by antigen-presenting cells was measured as follows. Each long chain peptide labeled with a fluorescent dye was complexed with CHP by the method described above. Spleen cells separated from a normal mouse were added at 1×10^6 cells/0.5 mL/well to a 24-well plate. […] The uptake of the fluorescence-labeled long chain peptide antigens by CD11c^+ cells (dendritic cells) and F4/80^+ cells (macrophages) were observed using flow cytometry.

SNPARYEFLYYYYYYQYIHSANVLYYYYYYRGPESRLL (Long chain peptide antigen, containing three types of mouse CD8+ T cell epitope sequences (MA p265, NY p81, and mERK2 9m)) [MEN(Y6)]
fluorescence uptake into macrophages of the regional lymph node [1]: clearly observed
growth of the tumor [2]: suppressed significantly (p<0.05)
fluorescence uptake into macrophages [3]: significantly higher
